Reference: patent US6121296A, “Transition-state inhibitors for nucleoside hydrolase and transferase reactions” (Albert Einstein College of Medicine of Yeshiva University, priority 1998, dated 2000)
“Also recorded” adds a separate entry of the source. Where two headings read alike, the source gives them in different places.

Tests used:
[1] = target: T1, IU-nucleoside hydrolase (Crithidia fasciculata, UniProt Q27546, P2A); assay: biochemical; type: biochemical, C. fasciculata; conditions: for inhibition pattern: minimum of four substrate and three inhibitor concentrations
T1 construct: contained the coding region for the enzyme; made in house; host or cells: E. coli BL21 (DE3)pLysS, pET3d plasmid
T1 sequence (Q27546 whole entry P2A): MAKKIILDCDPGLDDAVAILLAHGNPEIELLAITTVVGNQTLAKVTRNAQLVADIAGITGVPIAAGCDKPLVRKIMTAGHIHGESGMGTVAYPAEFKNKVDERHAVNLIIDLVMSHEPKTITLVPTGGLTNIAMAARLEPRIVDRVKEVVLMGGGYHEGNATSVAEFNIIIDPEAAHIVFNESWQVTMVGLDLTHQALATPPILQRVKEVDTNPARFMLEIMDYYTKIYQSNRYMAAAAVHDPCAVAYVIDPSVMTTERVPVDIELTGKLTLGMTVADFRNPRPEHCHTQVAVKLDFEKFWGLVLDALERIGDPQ
Text: Enzymes. Inosine-uridine nucleoside hydrolase (IU-nucleoside hydrolase) was purified from extracts of E. coli strain BL21 (DE3)pLysS which contained the coding region for the enzyme isolated from C. fasciculata in a pET3d expression plasmid. The DNA coding for the enzyme was placed in the NcoI-BamHI site. This construct gives a Pro2Ala substitution which has no significant effect on the kinetic properties of the purified enzyme. The overexpressed enzyme was purified to apparent homogeneity as previously described (Gopaul, et al. (1996) Biochemistry 35, 5963-5970).
(§1) Enzyme Assays. Initial rate measurements were accomplished at 30° C. in reaction mixtures containing 50 mM potassium phosphate, pH 7.5, or 50 mM Hepes, pH 8.0, and nitrophenylribose or inosine as substrates (Mazella, et al. (1996) J. Am. Chem. Soc. 118, 2111-2112). At pH 7.5 the product p-nitrophenylate anion is present at a concentration which gives a millimolar extinction coefficient of 9.3 cm^-1 at 400 nm. Reaction mixtures with nitrophenylribose as substrate were initiated by the addition of enzyme, and product formation was monitored by continuous recording at 400 nm. With inosine as substrate, the conversion to hypoxanthine was monitored continuously at 280 nm (Parkin, et al. (1991) J. Biol. Chem. 266, 20658-20665). […] The remainder of the inhibitors were analyzed at one fixed substrate concentration and variable inhibitor concentrations. Inhibition constants for IAG-nucleoside hydrolase were established from full kinetic analysis with V and X as inhibitors. […] The remainder of the inhibition constants were characterized by titration of assay mixtures containing a fixed concentration of substrate with variable inhibitor concentrations. […] For Ki determination at a fixed substrate concentration, this approach assumes that substrate and inhibitor compete for the catalytic site.
Inhibitors. Iminoribitol inhibitor were synthesized and purified according to the methods of Furneaux, et al. (Tetrahedron (1997) in press), characterized by NMR, dissolved in H2 O and stored at -20° C. The compounds are enzymatically and chemically stable in H2 O and under conditions of the assay. IU-Nucleoside hydrolase is susceptible to slow-onset tight-binding inhibition under certain conditions (Horenstein & Schramm, (1993b) Biochemistry 32, 9917-9925, Boutellier, et al. (1994) Biochemistry, 33, 3994-4000). However, in the initial reaction rate conditions described here, only the rapidly reversible competition between substrate and inhibitor is being observed. Thus, the reported kinetic constants are dissociation constants which exclude slow-onset binding.

[2] = target: IAG-nucleoside hydrolase (Trypanosoma brucei, UniProt Q57ZL6); assay: Inhibition of IAG-nucleoside hydrolase, initial rates; conditions: for inhibition at highest concentration tested: 80, 120, 120 and 160 μM II, III, IV and VI respectively, 75 μM inosine
IAG-nucleoside hydrolase, sequence (Q57ZL6 entry or part of it): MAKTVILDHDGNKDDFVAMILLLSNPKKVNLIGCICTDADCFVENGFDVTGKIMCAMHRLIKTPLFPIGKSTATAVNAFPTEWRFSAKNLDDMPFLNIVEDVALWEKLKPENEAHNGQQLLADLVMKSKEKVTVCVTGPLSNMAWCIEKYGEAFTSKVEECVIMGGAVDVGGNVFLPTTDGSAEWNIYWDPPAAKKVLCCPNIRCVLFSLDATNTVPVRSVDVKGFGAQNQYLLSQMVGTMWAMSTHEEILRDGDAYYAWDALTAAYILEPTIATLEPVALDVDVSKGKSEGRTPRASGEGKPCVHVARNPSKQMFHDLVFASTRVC
Experimental: The enzyme was purified to apparent homogeneity as determined by denaturing polyacrylamide gel electrophoresis (Parkin, (1996) J. Biol. Chem. 271, 21713-21719). Some of the studies used the T. brucei brucei enzyme which was overexpressed in E. coli.
as §1, with “concentrations.” for “concentrations. Inhibition constants for IAG-nucleoside hydrolase were established from full kinetic analysis with V and X as inhibitors.”
Inhibitors. Iminoribitol inhibitor were synthesized and purified according to the methods of Furneaux, et al. (Tetrahedron (1997) in press), characterized by NMR, dissolved in H2 O and stored at -20° C.

[3] = target: T2, nucleoside hydrolase (Crithidia fasciculata, UniProt Q27546); assay: Nucleoside hydrolase purified from C. fasciculata: substrate kinetics and inhibition (Table III); type: biochemical; conditions: for inhibition pattern: vs inosine; for Substrate or inhibitor concentration (substrate activity limit; nucleoside concentration in parentheses): Table III lower part; for Km / Vmax: Table III; for Km / Vmax / Vmax /Km: compound as substrate
T2 construct: nucleoside hydrolase was purified from C. fasciculata as described above; endogenous in cells; host or cells: Crithidia fasciculata cells grown in a 300-liter fermenter
T2 sequence (Q27546 1-315): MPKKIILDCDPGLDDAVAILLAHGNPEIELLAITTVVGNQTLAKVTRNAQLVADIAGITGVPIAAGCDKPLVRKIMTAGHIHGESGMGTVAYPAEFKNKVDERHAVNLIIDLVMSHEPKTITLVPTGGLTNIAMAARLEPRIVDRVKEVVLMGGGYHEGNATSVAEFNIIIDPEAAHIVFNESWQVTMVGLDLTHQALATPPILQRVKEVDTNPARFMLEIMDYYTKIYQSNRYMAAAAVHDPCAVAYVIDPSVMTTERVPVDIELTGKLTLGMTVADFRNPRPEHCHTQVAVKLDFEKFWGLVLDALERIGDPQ
Experimental: The assay volumes were […]. The reaction was terminated by the addition of […] of 1.0 M HCl. […] The color was developed at 95° C. for 8 minutes and the optical absorbance measured at 450 nm. Enzymatic activity was expressed as millimoles of reducing sugar formed per minute per milligram of protein. During the initial stages of purification a modified assay which removes excess protein was used. Protein solutions of 1-5 ml were added to 100 ml of the assay mixture and incubated for the desired time. The assay was terminated by the addition of […] of 0.1 M ZnSO4. Excess Zn^2+ was removed by the addition of […] of 0.1 M NaOH. After centrifugation, 250 ml of supernatant was removed and assayed for reducing sugar. […] Arsenate readily replaces phosphate in the reaction and the product ribose 1-arsenate rapidly hydrolazes to release ribose which is detected in the reducing sugar assay.
At other pH values, a mixed buffer system was used which contained 30 mM each of acetate. Mes, Pipes, Hepes, Bicine, and Ches were adjusted to the desired pH with HCl or NaOH. The reaction was initiated with a small volume of enzyme and the increase in absorbance recorded at 280 nm.
Assay mixtures of 19 ml contained the desired concentration of inosine and inhibitor(s) together with approximately 3×10^4 cpm of radioactive inosine in 50 mM Hepes or triethanolamine buffer, pH 7.3. […] Samples of […] were removed at the appropriate intervals and spotted on polyethyleneimine cellulose thin layer plates which had been previously spotted with 4 ml of a solution containing 2.2 mM each of inosine and hypoxanthine.
Reaction mixtures were incubated for 5-27 hours and samples analyzed on a 7.8 mm×30 cm C18 -HPLC column eluted with 5 or 10% methanol in H2 O, 4 ml/minute. Samples were detected by the absorbance at 257 nm. Substrate activity with deoxyinosine was also measured at 500 MHz by NMR. […] Proton NMR spectra were collected in sets of eight scans over 15 minutes at room temperature.
Apparent inhibition constants (Ki(app)) were determined from the relationship shown in the following equation:
Vo /Vi +(inosine±Km (1+I/Ki(app))/(inosine+Km)
where Vo and Vi are the initial reaction rates without and with inhibitor, respectively. Km is the Michaelis constant for inosine, I is inhibitor concentration and Ki(app) is the apparent dissociation constant for inhibitor. In cases where the inhibitor is competitive with respect to substrate, Ki(app) is the dissociation constant for the enzyme-inhibitor complex.

[4] = KI IU-nucleoside hydrolase, Table V
[5] = apparent constant, single inosine concentration near Km, three inhibitor concentrations, read-out: Ki(app)

OC[C@H]1O[C@@H](c2ccccc2)[C@H](O)[C@@H]1O [XIII, 1-deoxy-1-C-phenyl-β-D-ribofuranose, reference compound]
Ki ([1]; Ki IU-nucleoside hydrolase, Table VI, 58 μM nitrophenylriboside, 50 mM Hepes, pH 8.0): 600 µM | Ki ([1]; inhibition constant IU-enzyme, text b399, unit inferred): 1600 µM | Ki [2]: > 30 mM | decline of affinity relative to inosine [2]: > 1670 fold | binding / inhibition at 10 mM ([2]; 10 mM XIII): no binding can be detected | Km /Ki IAG-nucleoside hydrolase ([2]; Table VI, comparison with inosine): < 0.0006 | Ki ([2]; read-out: Ki IAG-nucleoside hydrolase, Table VI, XIII: 560 μM nitrophenylriboside, 50 mM Hepes, pH 8.0, lower limit): > 30 mM

O=c1[nH]cnc2nc[nH]c12 [Hypoxanthine]
Ki [3]: 6.2 ± 0.9 mM | inhibition pattern [3]: slope-linear, competitive patterns

O=[N+]([O-])c1cccc([C@@H]2N[C@H](CO)[C@@H](O)[C@H]2O)c1 [III]
Ki [1, 4]: 7.5 ± 0.5 µM | Ki [2]: > 0.36 mM | Km /KI IAG-nucleoside hydrolase [2]: < 0.05 | inhibition at highest concentration tested [2]: NO inhibition was observed

O=c1[nH]cnc2c([C@@H]3O[C@H](CO)[C@@H](O)[C@H]3O)n[nH]c12 [Formycin B]
Ki [3]: 1.96 mM | Substrate or inhibitor concentration (substrate activity limit; nucleoside concentration in parentheses) [3]: < 0.02

O=C[C@H](O)[C@H](O)[C@H](O)CO [Ribose]
Ki [3]: 0.7 ± 0.1 mM | inhibition pattern [3]: slope-linear, competitive patterns

Nc1ncnc2c1ncn2C1CC(O)C(CO)O1 (stereo not drawn) [d-Adenosine]
Substrate or inhibitor concentration (substrate activity limit; nucleoside concentration in parentheses) [3]: < 0.0006 | Ki [3, 5]: 3.2 mM

CSC[C@H]1O[C@@H](n2cnc3c(N)ncnc32)[C@H](O)[C@@H]1O [5'-Methylthioadenosine]
Ki [3]: 5.7 mM | Substrate or inhibitor concentration (substrate activity limit; nucleoside concentration in parentheses) [3]: < 0.0003

O=C(O)c1ccc([C@@H]2N[C@H](CO)[C@@H](O)[C@H]2O)cc1 [VI]
Ki [1, 4]: 0.096 ± 0.007 µM | Ki [2]: > 0.48 mM | Km /KI IAG-nucleoside hydrolase [2]: < 0.04 | inhibition at highest concentration tested [2]: NO inhibition was observed

OC[C@H]1N[C@@H](c2ccc(Cl)cc2)[C@H](O)[C@@H]1O [XI]
Ki [1, 4]: 0.03 ± 0.0014 µM | inhibition pattern [1]: slope-linear competitive inhibitors | Ki [2]: 0.19 ± 0.008 mM | Km /KI IAG-nucleoside hydrolase [2]: 0.095

OC[C@H]1N[C@@H](c2ccc(F)cc2)[C@H](O)[C@@H]1O [VIII]
Ki [1, 4]: 0.057 ± 0.005 µM | inhibition pattern [1]: slope-linear competitive inhibitors | Ki [2]: 0.205 ± 0.014 mM | Km /KI IAG-nucleoside hydrolase [2]: 0.088

Cytosine
Km [3]: 4700 µM | Vmax [3]: 36 ± 3 µmol/min/mg | Vmax /Km [3]: 4.5 × 10^3 M^-1 S^-1

Nc1ncnc2c1ncn2[C@@H]1O[C@H](COP(=O)(O)O)[C@@H](O)[C@H]1O [AMP]
Ki [3]: 44 mM | Substrate or inhibitor concentration (substrate activity limit; nucleoside concentration in parentheses) [3]: < 0.01

OC[C@H]1O[C@@H](n2cnc3cncnc32)[C@H](O)[C@@H]1O [Purine riboside]
substrate activity [3]: poor substrate | Vmax /Km [3]: 1.5×10^2 M^-1 S^-1

Nc1ncnc2c1ncn2[C@@H]1O[C@H](CO)C[C@H]1O [3'-d-Adenosine]
Ki [3]: 7.29 mM | Substrate or inhibitor concentration (substrate activity limit; nucleoside concentration in parentheses) [3]: < 0.16

Nc1ncnc2c1ccn2[C@@H]1O[C@H](CO)[C@@H](O)[C@H]1O [7-Deazaadenosine, 7-deazaadenosine]
Ki [3]: 2.3 mM | rate of hydrolysis relative to the rate with inosine (detection level) [3]: < 3×10^-4 | Substrate or inhibitor concentration (substrate activity limit; nucleoside concentration in parentheses) [3]: < 0.0008 | substrate activity ([3]; listed as tubercidin): not a substrate; also recorded: lack of substrate activity | inhibition pattern [3]: competitive inhibitor

OC[C@H]1O[C@@H](n2cnc3c(O)ncnc32)[C@H](O)[C@@H]1O [Inosine]
Vmax /Km for inosine relative to adenosine [3]: 7.8 times | Km [3]: 380 ± 30 µM | Vmax [3]: 50 ± 2 µmol/min/mg | Vmax /Km [3]: 7.6×10^-4 M^-1 S^-1

C[C@H]1O[C@@H](n2cnc3c(=O)[nH]cnc32)[C@H](O)[C@@H]1O [5d-inosine]
substrate activity [3]: Low rates of product formation

Cc1cn([C@H]2C[C@H](O)[C@@H](CO)O2)c(=O)[nH]c1=O [Thymidine]
Ki [3]: 7.8 mM | substrate activity [3]: no activity being detected | Substrate or inhibitor concentration (substrate activity limit; nucleoside concentration in parentheses) [3]: < 0.0008 | apparent Vmax difference, 5-methyluridine vs thymidine ([3]; effect of the 2'-hydroxyl): > 10^5

C[C@H]1O[C@@H](n2cnc3c(N)ncnc32)[C@H](O)[C@@H]1O [5d-adenosine, 5'-Deoxyadenosine]
substrate activity [3]: Low rates of product formation

O=c1[nH]cnc2c1ncn2[C@H]1C[C@H](O)[C@@H](CO)O1 [d-Inosine]
Substrate or inhibitor concentration (substrate activity limit; nucleoside concentration in parentheses) [3]: < 0.0003 | Ki [3, 5]: 2.3 mM

O=[N+]([O-])c1ccc(O[C@@H]2O[C@H](CO)[C@@H](O)[C@H]2O)cc1 [nitrophenylribose, reference compound]
Km ([1]; compound as substrate): 64 ± 6 µM
